Read-outs that look alike come from different tables or passages of the source.
Assays:
[1] = test system: HIV-1 in HeLa cells; assay: Virus inhibition assay; type: cell-based; details: 48 hours
[2] = test system: HIV-1 in GHOST cells; assay: Virus inhibition assay; type: cell-based; details: 48 hours
[3] = test system: GHOST cells
[4] = test system: HIV-1 RT K103N; details: FEP/MC, relative to efavirenz; cited from earlier work
[5] = test system: HIV-1 RT Y188L; details: FEP/MC, relative to efavirenz; cited from earlier work
[6] = test system: HIV-1 RT L100I; details: FEP/MC, relative to nevirapine; cited from earlier work
[7] = test system: HIV-1 RT Y181C; details: FEP/MC, relative to nevirapine; cited from earlier work
[8] = test system: HIV-1 RT K103N; details: relative to efavirenz; cited from earlier work
[9] = test system: HIV-1 RT Y188L; details: relative to efavirenz; cited from earlier work
[10] = test system: HIV-1 RT L100I; details: relative to nevirapine; cited from earlier work
[11] = test system: HIV-1 RT Y181C; details: relative to nevirapine; cited from earlier work
[12] = test system: HIV-1 infected human MT-2 cells; details: infected MT-2 human T-cell assay; cited from earlier work
[13] = test system: HIV-1 protease; details: cited from earlier work
[14] = test system: HIV-1 protease; details: cited from earlier work; remark: listed apart in the source

Q: For “2,6-dichlorobenzamido-1H-indole [Compound 5]”, which “HIV-1 inhibition (reduction in viral infectivity)” value ([1]; 0.2 μM) is on record?
A: no appreciable inhibition

Q: What about the HIV-1 inhibition ([1]; 10 μM) of the same molecule?
A: 30%

Q: And the “HIV-1 inhibition (reduction in viral infectivity)” value ([2]; 0.2 μM)?
A: no appreciable inhibition

Q: And the HIV-1 inhibition ([2]; 10 μM)?
A: 30%

Q: What about the viability ([3]; 10 μM) of the same molecule?
A: 81%

Q: What about the viability ([3]; 50 μM) of the same molecule?
A: 46%

Q: Which “ΔΔG (computed), K103N” value [4] does the source give for `Cc1cc(C#N)cc(C)c1Oc1nc(Nc2ccc(C#N)cc2)nc(N)c1Br` [etravirine] here?
A: -2.4 kcal/mol

Q: And the “ΔΔG (computed), Y188L” value [5]?
A: -2.4 kcal/mol

Q: What about the “ΔΔG (predicted), L100I” value [6] of the same molecule?
A: -0.9 kcal/mol

Q: What about the “ΔΔG (predicted), Y181C” value [7] of the same molecule?
A: -2.6 kcal/mol

Q: And the “ΔΔG (experimental), K103N” value [8]?
A: -2.00 ± 0.40 kcal/mol

Q: And the “ΔΔG (experimental), Y188L” value [9]?
A: -2.07 ± 0.23 kcal/mol

Q: What about the “ΔΔG (experimental), L100I” value [10] of the same molecule?
A: -2.36 ± 0.42 kcal/mol

Q: What about the “ΔΔG (experimental), Y181C” value [11] of the same molecule?
A: -1.36 ± 0.28 kcal/mol

Q: For `Cc1ccnc2c1NC(=O)c1cccnc1N2C1CC1` [nevirapine], which EC50 [12] is on record?
A: 110 nM

Q: Which EC50 [12] does the source give for `Nc1noc(C2CN3CCC2C3)n1` (stereo not shown) [oxadiazole] here?
A: inactive

Q: What does the source list for “Ac-Ser-Leu-Asn-(Phe-Hea-Pro)-Ile-Val-OMe [JG-365]”?
A: ΔΔGbind (calculated), heptapeptide → hexapeptide (deletion of valine) ([13]; FEP/MD, averaged for R and S): 3.3 ± 1.1 kcal/mol; ΔΔGbind (experimental), heptapeptide → hexapeptide ([14]; from Ki values for an equilibrium mixture of R and S configurations): 3.8 ± 1.3 kcal/mol

Q: Which “decrease of binding, single Nle to Met mutation” value [13] does the source give for “Ac-Thr-Ile-Nle-ψ [CH2-NH]-Nle-Gln-Arg-NH2 [MVT-101]” here?
A: 0.7 kcal/mol

Q: Which “ΔΔGbind (computed), central hydroxyl S to R” value ([13]; FEP/MD) does the source give for “Ala-Ala-Phe[CH(OH)CH2]Gly-Val-Val-OMe [HEI]” here?
A: 3.37 ± 0.64 kcal/mol

Q: What about the “predicted enhancement of binding, Gly to Nle mutation” value [13] of the same molecule?
A: 1.7 kcal/mol

Q: And the “ΔΔGbind (experimental), central hydroxyl S to R” value [14]?
A: 2.6 kcal/mol
